Legend:
[1] = system: mouse acute inflammation model induced by intraperitoneally transplanting Propionibacterium acnes; test: Anti-inflammatory property evaluation assay: neutrophil count in peritoneal exudate of the P. acnes-induced mouse acute inflammation model; format: in vivo, mouse (male BALB/c); conditions: for anti-inflammatory activity as compared with the RvE2 and o-BZ-RvE2 groups / number of neutrophils in peritoneal exudate as compared with P. acnes-inoculated control mice: 300 pg intraperitoneally 8 hours after P. acnes injection, FIG. 3; for number of neutrophils in peritoneal exudate as compared with P. acnes-inoculated control mice: n=3 or 4
Method: The strength of the anti-inflammatory action of each compound was evaluated by using a mouse acute inflammation model induced by intraperitoneally transplanting Propionibacterium acnes.
The mouse acute inflammation model was produced using male BALB/c mice (6 to 7 weeks, obtained from Japan SLC Inc.). First, Propionibacterium acnes (P. acnes; 500 μg per mouse) subjected to heat sterilization was intraperitoneally injected into a mouse to prepare an acute inflammation model mouse. Eight or twelve hours after the injection of Propionibacterium acnes, the test compound was intraperitoneally administered to an acute inflammation model mouse. Then, 24 hours after the injection of Propionibacterium acnes, a peritoneal exudate was collected and the number of neutrophils was counted.
Then, 24 hours after the injection of Propionibacterium acnes, a peritoneal exudate was collected and the number of neutrophils was counted.
12 hours after the injection of Propionibacterium acnes, 300 fg, 300 pg, or 300 ng of RvE2 or o-BZ-RvE2, or only a solvent was independently intraperitoneally administered to acute inflammation model mice (n=3 or 4). Then, 24 hours after the injection of Propionibacterium acnes, a peritoneal exudate was collected and the number of neutrophils was counted.
300 pg of RvE2, o-BZ-RvE2, 17-deoxy-o-BZ-RvE2, 5-deoxy-o-BZ-RvE2, or 5,17-dideoxy-o-BZ-RvE2, or only a solvent was intraperitoneally administered to acute inflammation model mice 8 hours after the injection of Propionibacterium acnes (n=3 or 4). Then, 24 hours after the injection of Propionibacterium acnes, a peritoneal exudate was collected and the number of neutrophils was counted.

[2] = Evaluation of metabolic stability with human liver microsomes (HPLC remaining rate); format: in vitro ADME; conditions: 37° C.; for temporal change in the remaining rate in the presence of human liver microsomes: 0.1 M PBS (pH 7.4), HPLC, n=3, FIG. 4; for metabolic stability / degradation by human liver microsomes (in words): Example 1, 0-6 hours, FIG. 2
Method: 60 μL was aliquoted from an ethanol solution (1 mg/1 mL) of the synthetic compound to be evaluated, and the solvent was removed. A 0.1 M PBS buffer (435 μL, pH 7.4), CH3CN (10 μL), an NADPH regeneration system A solution (25 μL), and an NADPH regeneration system B solution (5 μL) were added to each compound, and stirring was carried out with a vortex mixer. After incubating the obtained reaction solution at 37° C. for 5 minutes, human liver microsomes (Corning (registered trade name) UltraPool (registered trade name) HLM 150) (25 μL) were added thereto, and 80 μL of the solution was aliquoted every hour (after 0, 1, 2, 3, and 6 hours from the addition). Each of the aliquoted solutions was quenched by adding CH3CN (80 μL) and then centrifuged (10,000 rpm) for 3 minutes at room temperature. The supernatant was collected and analyzed by using HPLC (COSMOSIL 5C18-MS-II, 4.6 mm×250 mm, CH3CN/H2O/TFA=35/65/0.01, 1.0 mL/min, detection at 254 nm).
The metabolic stability of 17-deoxy-o-BZ-RvE2 and 5-deoxy-o-BZ-RvE2 with respect to human liver microsomes was investigated. Specifically, for RvE2, o-BZ-RvE2, 17-deoxy-o-BZ-RvE2, and 5-deoxy-o-BZ-RvE2, the temporal change in the remaining rate (%) was measured by HPLC in 0.1 M PBS (pH 7.4) in the presence of human liver microsomes at 37° C. (n=3).

[3] = background statement; cited from earlier work
[4] = background statement; cited from earlier work; remark: listed apart in the source
[5] = exudate collected 24 hours after injection

metabolic stability / degradation by human liver microsomes (in words) [2] | Compound | anti-inflammatory activity as compared with the RvE2 and o-BZ-RvE2 groups ([1]; exudate at 24 hours) | number of neutrophils in peritoneal exudate as compared with P. acnes-inoculated control mice [1, 5] | temporal change in the remaining rate in the presence of human liver microsomes [2] | stability with respect to oxygen as compared with RvE2 [3] | metabolic stability [4] | infiltration of neutrophils into the abdominal cavity (number of neutrophils in peritoneal exudate) as compared with solvent alone ([1]; 300 pg intraperitoneally 12 hours after P. acnes injection, exudate collected 24 hours after injection, n=4, FIG. 1(a)) | anti-inflammatory action as compared with RvE2 ([1]; 300 fg, 300 pg or 300 ng intraperitoneally 12 hours after P. acnes injection, exudate at 24 hours, FIGS. 1(a) and 1(b))
– | CCC/C=C/c1ccccc1C/C=C/CCCCC(=O)O [5,17-dideoxy-o-BZ-RvE2] | attenuated | significantly decreased | – | – | – | – | –
– | CC[C@@H](O)/C=C/c1ccccc1C/C=C/CCCCC(=O)O [5-deoxy-o-BZ-RvE2] | attenuated | significantly decreased | gradually decreased as compared with RvE2 | – | – | – | –
– | CCC(O)C=CC=CCC1CC1CC=CC=CC(O)CCCC(=O)O (centres unmarked) [CP-RvE2] | – | – | – | improved stability with respect to oxygen | insufficient metabolic stability | – | –
easily degraded | CC[C@@H](O)/C=C/C=C\C/C=C\C/C=C\C=C\[C@@H](O)CCCC(=O)O [RvE2, (5S,6E,8Z,11Z,14Z,16E,18R)-5,18-dihydroxyicosa-6,8,11,14,16-pentaenoic acid, reference compound] | – | significantly decreased | decreased with the passage of time | – | – | – | –
excellent in metabolic stability | CC[C@@H](O)/C=C/c1ccccc1C/C=C/[C@@H](O)CCCC(=O)O [o-BZ-RvE2] | – | significantly decreased | – | – | – | significantly suppressed | excellent anti-inflammatory action as compared with RvE2
